According to ChEMBL document CHEMBL1201862, “PubChem BioAssay data set” (2004):
Several values for one entry are separate records, joined by “and”; a condition that tells them apart may be missing. Equal values may be shown once. Activity calls are given as the source filed them.

Assays:
Cytochrome P450 2D6 = Cytochrome P450 2D6 (Homo sapiens, UniProt P10635);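 note: CYP2D6 member of a cytochrome P450 panel assay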
[1] = inhibitors of intracellular T. cruzi replication, confirmation, NIH3T3 host cells, beta-gal luminescence (AID 2044); type: functional, cell-based;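 note: intracellular parasites grown in NIH/3T3 mouse fibroblasts as host cells; luminescent beta-galactosidase reporter signal from transgenic T. cruzi replicating inside host cells; inhibitors lower the luminescence signal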
[2] = cytotoxicity toward NIH3T3 fibroblasts, dose response, counter-screen, cell-based, ATP luminescence, mouse fibroblasts (AID 2010); type: functional;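 note: cells exposed to compound for about 90 hours before reading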
Cytochrome P450 1A2 = biological target: T1, Cytochrome P450 1A2 (Homo sapiens, UniProt P05177);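 note: PubChem cytochrome P450 panel assay, CYP1A2 panel member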
T1 sequence (P05177 whole entry): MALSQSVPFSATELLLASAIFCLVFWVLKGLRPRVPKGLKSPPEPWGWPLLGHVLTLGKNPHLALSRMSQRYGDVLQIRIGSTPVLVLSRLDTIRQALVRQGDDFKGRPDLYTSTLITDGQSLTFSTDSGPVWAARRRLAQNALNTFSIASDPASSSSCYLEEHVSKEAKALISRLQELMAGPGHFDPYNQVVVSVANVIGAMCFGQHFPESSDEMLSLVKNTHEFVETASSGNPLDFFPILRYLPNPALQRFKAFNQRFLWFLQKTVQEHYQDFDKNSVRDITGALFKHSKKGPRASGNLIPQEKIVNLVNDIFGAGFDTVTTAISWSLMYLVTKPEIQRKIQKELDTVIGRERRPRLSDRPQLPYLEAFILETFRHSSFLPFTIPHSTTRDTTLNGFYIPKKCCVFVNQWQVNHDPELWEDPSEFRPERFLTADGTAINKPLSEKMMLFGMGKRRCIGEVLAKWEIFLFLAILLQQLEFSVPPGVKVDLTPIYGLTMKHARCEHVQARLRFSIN

Cytochrome P450 2C9 = Cytochrome P450 2C9 (Homo sapiens, UniProt P11712)
[3] = biological target: T2, Corticotropin-releasing factor receptor 2/Corticotropin-releasing factor-binding protein (Homo sapiens, UniProt P24387+Q13324); assay: activators of CRF receptor 2 with binding protein – uHTS hits, confirmation (AID 602473); type: functional; conditions: read-out: EC50_Mean
T2 sequence (Q13324 whole entry): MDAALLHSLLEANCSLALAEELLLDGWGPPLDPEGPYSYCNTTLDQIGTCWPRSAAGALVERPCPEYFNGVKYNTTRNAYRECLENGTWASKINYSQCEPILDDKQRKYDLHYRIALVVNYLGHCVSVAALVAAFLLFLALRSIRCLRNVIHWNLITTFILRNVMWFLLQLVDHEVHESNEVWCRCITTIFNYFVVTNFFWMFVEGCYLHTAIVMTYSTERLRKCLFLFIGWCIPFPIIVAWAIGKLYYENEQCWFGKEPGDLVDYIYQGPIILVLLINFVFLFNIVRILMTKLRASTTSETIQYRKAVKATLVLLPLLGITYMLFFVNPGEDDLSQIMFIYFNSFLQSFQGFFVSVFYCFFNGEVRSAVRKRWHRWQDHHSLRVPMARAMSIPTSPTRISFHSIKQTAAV
T2 sequence (P24387 whole entry): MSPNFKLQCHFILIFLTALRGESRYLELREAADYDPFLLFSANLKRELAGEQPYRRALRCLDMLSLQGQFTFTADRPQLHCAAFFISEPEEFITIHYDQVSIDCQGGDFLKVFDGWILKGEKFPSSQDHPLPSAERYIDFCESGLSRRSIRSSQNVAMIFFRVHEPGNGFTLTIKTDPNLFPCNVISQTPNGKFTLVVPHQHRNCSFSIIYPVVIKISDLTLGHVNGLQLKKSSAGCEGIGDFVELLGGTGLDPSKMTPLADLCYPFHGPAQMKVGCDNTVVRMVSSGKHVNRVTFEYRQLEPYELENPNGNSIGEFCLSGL

[4] = HEp-2 cell cytotoxicity, dose response, cytotoxicity control for RSV inhibitor project, HTS (AID 2410); type: functional; conditions: human respiratory syncytial virus

Chain of Cytochrome P450 2C9 (P11712 whole entry): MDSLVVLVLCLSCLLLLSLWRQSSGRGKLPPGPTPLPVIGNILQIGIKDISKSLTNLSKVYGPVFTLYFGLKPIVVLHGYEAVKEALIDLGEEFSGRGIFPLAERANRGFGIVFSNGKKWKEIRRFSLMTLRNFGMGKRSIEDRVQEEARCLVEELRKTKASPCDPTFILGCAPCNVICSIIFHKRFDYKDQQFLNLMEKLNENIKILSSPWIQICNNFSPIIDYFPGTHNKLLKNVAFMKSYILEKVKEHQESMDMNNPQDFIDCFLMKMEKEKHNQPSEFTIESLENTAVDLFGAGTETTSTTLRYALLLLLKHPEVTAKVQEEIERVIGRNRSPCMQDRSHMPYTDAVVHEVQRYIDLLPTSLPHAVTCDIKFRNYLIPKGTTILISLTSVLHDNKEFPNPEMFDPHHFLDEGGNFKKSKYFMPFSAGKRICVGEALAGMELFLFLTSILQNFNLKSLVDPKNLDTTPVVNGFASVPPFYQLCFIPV
Chain of Cytochrome P450 2D6 (P10635 whole entry): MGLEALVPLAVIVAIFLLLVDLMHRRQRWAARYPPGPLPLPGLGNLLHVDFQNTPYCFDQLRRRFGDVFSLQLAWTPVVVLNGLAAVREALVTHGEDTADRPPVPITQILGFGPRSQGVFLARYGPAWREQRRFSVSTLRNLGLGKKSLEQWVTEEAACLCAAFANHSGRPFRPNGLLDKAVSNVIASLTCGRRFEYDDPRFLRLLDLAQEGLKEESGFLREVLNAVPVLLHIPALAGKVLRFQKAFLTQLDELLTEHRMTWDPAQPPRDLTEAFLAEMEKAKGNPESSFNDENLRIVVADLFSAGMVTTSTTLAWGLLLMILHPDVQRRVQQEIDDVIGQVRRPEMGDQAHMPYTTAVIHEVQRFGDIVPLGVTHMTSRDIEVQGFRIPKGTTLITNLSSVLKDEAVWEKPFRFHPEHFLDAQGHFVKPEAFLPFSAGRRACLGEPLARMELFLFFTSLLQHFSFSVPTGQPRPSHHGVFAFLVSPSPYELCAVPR

AC50 (Cytochrome P450 2D6) | AC50 (Cytochrome P450 1A2) | Structure (SMILES) | EC50 [1] | EC50 [2] | further results
39.8 µM (inconclusive) | – | CC(C)(C)c1cc(/C=C(\C#N)C(N)=S)cc(C(C)(C)C)c1O [TYRPHOSTIN AG 879] | – | – | –
39.8 µM (inconclusive) | 12.6 µM (inconclusive) | N#Cc1cccc(NC(=O)N2CCCC3(CCN(C(=O)c4cccc(F)c4)CC3)C2)c1 | – | – | AC50 (Cytochrome P450 2C9): 31.6 µM (inconclusive)
– | 25.1 µM (inconclusive) | CCCCSC(=S)N(C)C1CCS(=O)(=O)C1 (stereo unspecified) | – | – | –
0.562 µM (inconclusive) | – | CCOC(=O)NC(=O)CSc1nc2cc(OCC)ccc2[nH]1 | – | – | –
20 µM (inconclusive) | – | COc1cccc(-c2cncnc2NCc2cccs2)c1 | – | – | –
20 µM (inconclusive) | 25.1 µM (inconclusive) | CC(C)OC(=O)c1cc2c(ccn2C)n1CC(=O)N1CCC(Cc2ccccc2)CC1 | – | – | –
– | 10 µM (inconclusive) | COCCn1c(=O)c(-c2cccc(C#N)c2)nc2cnc(N3CCOCC3)nc21 | – | – | AC50 (Cytochrome P450 2C9): 12.6 µM (inconclusive)
– | 15.8 µM (inconclusive) | COC(=O)Cn1c(C(=O)N2CCCC2)cc2c1C[C@H]1CN(C(=O)c3ccccc3)[C@@](Cc3ccc(F)cc3)(C(=O)OC)[C@@H]21 | – | – | –
39.8 µM (inconclusive) | – | Cc1ccc(CNC(=O)c2nnn(-c3cccc(C)c3)c2N)cc1 | – | – | AC50 (Cytochrome P450 2C9): 39.8 µM (inconclusive)
20 µM (inconclusive) | 25.1 µM (inconclusive) | O=C(c1cc(C(F)(F)F)cc(C(F)(F)F)c1)N1CCC[C@@]2(CCN(c3ccccn3)C2)C1 | – | – | –
3.16 µM (inconclusive) | – | COc1ccc(-c2ccc3c(n2)CCCN3C[C@H](O)CN2CCCc3nc(C)c(C)cc32)cc1 | – | – | –
– | 22.4 µM (inconclusive) | Cc1cc(C(=O)N/N=C/c2cccc(OC(=O)c3ccco3)c2)[nH]n1 | – | – | –

Continued, molecule first:

Structure (SMILES) | AC50 (Cytochrome P450 2D6) | AC50 (Cytochrome P450 1A2) | EC50 [1] | EC50 [2] | further results
c1ccc(Cc2ccc(OCCCNC3CCCC3)cc2)cc1 | – | – | 781 nM (active) | > 30 µM (not active) | –
CCN1CCCc2cc(CN(CCN3CCOCC3)C(S)=Nc3cccc(C)c3)ccc21 | – | – | 1620 nM (active) | > 60 µM (not active) | –
Cc1[nH]c2ccc(F)cc2c1CCN(Cc1cccnc1)C(S)=Nc1ccccc1 | – | – | 953 nM (active) | > 60 µM (not active) | –
COc1cc(CN2CCCC(C(=O)Nc3cccc(-n4cccn4)c3)C2)ccc1F (stereo unspecified) | – | – | 194 nM (active) | > 60 µM (not active) | –
CCOc1cc(C)c(C(C)C)cc1S(=O)(=O)n1cnc(C)c1 | – | – | 1530 nM (active) | 8.49 µM (active) | EC50 [3]: > 53 µM (inactive)
Cn1c(C(=O)OC(C(=O)NC2CCCCC2)c2ccncc2)cc2sccc21 (stereo unspecified) | – | – | > 30000 nM (not active) | > 30 µM (not active) | –
O=C(c1cnccn1)N1CCC[C@@]2(CCN(c3ccccc3)C2)C1 | – | 15.8 µM (inconclusive) | – | – | –
O=C(Nc1ccncc1)c1ccc(Cl)c(Cl)c1 | – | – | 472 nM (active) | > 30 µM (not active) | –
OCCC1CN(Cc2ccc3nonc3c2)CCN1Cc1ccsc1 (stereo unspecified) | – | – | 452 nM (active) | > 60 µM (not active) | –
CCN1CCN(c2ccc(NC(=O)C(C)C)cc2Cl)CC1 | 14.1 µM (inconclusive) | – | – | – | –
CC(C)NC[C@@H](O)COc1ccc(CCOCC2CC2)cc1 | – | 15.8 µM (inconclusive) and 12.6 µM (inconclusive) | – | – | –
Cc1csc(NC(=O)Cc2ccccc2[N+](=O)[O-])n1 | – | – | – | – | EC50 [3]: > 53 µM (inactive)
Cc1ccc(S(=O)(=O)c2nc(S(=O)(=O)c3ccc(C)cc3)c(NCc3ccco3)s2)cc1 | – | – | – | – | AC50 (Cytochrome P450 2C9): 5.62 µM (inconclusive)
COc1ccc2nc(NC(=O)C3CCCN(S(=O)(=O)c4cccc5nonc45)C3)sc2c1 (stereo unspecified) | – | – | – | – | CC50 [4]: > 50 µM (active)
COc1ccc2[nH]cc(CCNc3ccnc(-c4cccnc4)n3)c2c1 | – | – | – | – | AC50 (Cytochrome P450 2C9): 0.794 µM (inconclusive)
CSc1ccc(CN(C)CCc2ccccn2)cc1 | – | – | 143 nM (active) | > 30 µM (not active) | –
Cc1cc(C)n(-c2ccc3nnc(C)n3n2)n1 | – | – | – | – | CC50 [4]: 22 µM (active)
CCN(CC)CCNC(=O)c1ccc(Cl)c(S(=O)(=O)Nc2ccccc2OC)c1 | – | – | – | – | AC50 (Cytochrome P450 2C9): 12.6 µM (inconclusive)
